Tests used:
[1] = test system: Serine/threonine-protein kinase B-raf (Homo sapiens), P15056 [V600E]; test: BRAF V599E Kinase screen; conditions: Compound concentration 1.0 uM
[2] = molecular target: Serine/threonine-protein kinase PAK 5 (Homo sapiens) (UniProt Q9P286); test: PAK7 (KIAA1264) Kinase screen; conditions: Compound concentration 1.0 uM
[3] = molecular target: Angiopoietin-1 receptor (Homo sapiens) (UniProt Q02763); test: TEK (Tie2) Kinase screen; conditions: Compound concentration 1.0 uM
[4] = molecular target: Tyrosine-protein kinase Fgr (Homo sapiens) (UniProt P09769); test: FGR Kinase screen; conditions: Compound concentration 1.0 uM
[5] = molecular target: Ribosomal protein S6 kinase alpha-2 (Homo sapiens) (UniProt Q15349); test: RPS6KA2 (RSK3) Kinase screen; conditions: Compound concentration 1.0 uM
[6] = molecular target: T1, Muscarinic acetylcholine receptor M4 (Homo sapiens) (UniProt P08173); conditions: Compound concentration 10.0 uM
T1 sequence (whole entry): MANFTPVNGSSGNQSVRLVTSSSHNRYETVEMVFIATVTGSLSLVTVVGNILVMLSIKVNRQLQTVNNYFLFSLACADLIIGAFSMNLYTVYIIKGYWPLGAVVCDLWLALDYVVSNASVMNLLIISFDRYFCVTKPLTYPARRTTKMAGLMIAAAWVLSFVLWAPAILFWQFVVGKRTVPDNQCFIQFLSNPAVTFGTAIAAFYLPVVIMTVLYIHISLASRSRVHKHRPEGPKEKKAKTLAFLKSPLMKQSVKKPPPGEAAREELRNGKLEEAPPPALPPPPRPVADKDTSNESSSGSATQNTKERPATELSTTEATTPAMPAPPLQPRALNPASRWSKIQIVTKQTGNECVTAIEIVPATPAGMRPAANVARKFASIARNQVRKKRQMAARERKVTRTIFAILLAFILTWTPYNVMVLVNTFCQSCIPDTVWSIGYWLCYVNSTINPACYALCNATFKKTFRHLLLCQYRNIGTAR

[7] = molecular target: Calcium/calmodulin-dependent protein kinase kinase 1 (Homo sapiens) (UniProt Q8N5S9); test: CAMKK1 (CAMKKA) Kinase screen; conditions: Compound concentration 1.0 uM
[8] = molecular target: T2, 5-hydroxytryptamine receptor 1A (Homo sapiens) (UniProt P08908); conditions: Compound concentration 10.0 uM
T2 sequence (whole entry): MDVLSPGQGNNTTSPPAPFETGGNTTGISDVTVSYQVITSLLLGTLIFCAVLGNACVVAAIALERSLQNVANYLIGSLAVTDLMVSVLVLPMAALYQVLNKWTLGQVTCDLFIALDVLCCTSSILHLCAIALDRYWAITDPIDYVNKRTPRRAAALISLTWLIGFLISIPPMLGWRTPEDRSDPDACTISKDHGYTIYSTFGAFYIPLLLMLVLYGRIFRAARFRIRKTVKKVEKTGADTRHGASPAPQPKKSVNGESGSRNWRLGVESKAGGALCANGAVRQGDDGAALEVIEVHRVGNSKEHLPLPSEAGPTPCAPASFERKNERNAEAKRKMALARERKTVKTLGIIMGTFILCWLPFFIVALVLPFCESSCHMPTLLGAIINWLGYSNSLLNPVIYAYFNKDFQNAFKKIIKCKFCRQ

[9] = test system: Mast/stem cell growth factor receptor Kit (Homo sapiens), P10721 [T670I]; test: KIT T670I Kinase screen; conditions: Compound concentration 1.0 uM
[10] = molecular target: B1 bradykinin receptor (Homo sapiens) (UniProt P46663); test: Inhibition of Bradykinin B1 at 10 µM in the Eurofins-Panlabs radioligand binding assay (Eurofins_assay_212510); conditions: Compound concentration 10.0 uM
[11] = molecular target: Homeodomain-interacting protein kinase 1 (Homo sapiens) (UniProt Q86Z02); test: HIPK1 (Myak) Kinase screen; conditions: Compound concentration 1.0 uM
[12] = molecular target: T3, Serine/threonine-protein kinase NLK (Homo sapiens) (UniProt Q9UBE8); test: NLK Kinase screen; conditions: Compound concentration 1.0 uM
T3 sequence (whole entry): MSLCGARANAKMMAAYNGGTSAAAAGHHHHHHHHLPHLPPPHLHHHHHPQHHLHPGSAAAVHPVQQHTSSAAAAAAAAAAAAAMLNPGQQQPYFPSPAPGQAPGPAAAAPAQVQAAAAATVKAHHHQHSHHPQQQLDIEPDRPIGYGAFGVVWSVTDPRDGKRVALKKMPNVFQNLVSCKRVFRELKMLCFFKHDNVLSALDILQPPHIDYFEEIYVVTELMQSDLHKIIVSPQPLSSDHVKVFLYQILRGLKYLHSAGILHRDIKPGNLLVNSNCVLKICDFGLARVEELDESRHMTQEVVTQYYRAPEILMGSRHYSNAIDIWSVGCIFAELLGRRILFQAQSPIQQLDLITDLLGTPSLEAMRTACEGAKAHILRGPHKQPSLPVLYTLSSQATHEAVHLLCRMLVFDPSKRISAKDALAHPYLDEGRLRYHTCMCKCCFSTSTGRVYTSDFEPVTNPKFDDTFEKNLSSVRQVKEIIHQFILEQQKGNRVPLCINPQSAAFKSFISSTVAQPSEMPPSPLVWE

[13] = molecular target: 5-hydroxytryptamine receptor 2A (Homo sapiens) (UniProt P28223); conditions: Compound concentration 10.0 uM
[14] = test system: Tyrosine-protein kinase ABL1 (Homo sapiens), P00519 [Y253F]; test: ABL1 Y253F Kinase screen; conditions: Compound concentration 1.0 uM
[15] = test system: Tyrosine-protein kinase ABL1 (Homo sapiens), P00519 [E255K]; test: ABL1 E255K Kinase screen; conditions: Compound concentration 1.0 uM

Measured: inhibition

Chain of Serine/threonine-protein kinase B-raf (Homo sapiens), P15056 [V600E] (P15056 whole entry V600E): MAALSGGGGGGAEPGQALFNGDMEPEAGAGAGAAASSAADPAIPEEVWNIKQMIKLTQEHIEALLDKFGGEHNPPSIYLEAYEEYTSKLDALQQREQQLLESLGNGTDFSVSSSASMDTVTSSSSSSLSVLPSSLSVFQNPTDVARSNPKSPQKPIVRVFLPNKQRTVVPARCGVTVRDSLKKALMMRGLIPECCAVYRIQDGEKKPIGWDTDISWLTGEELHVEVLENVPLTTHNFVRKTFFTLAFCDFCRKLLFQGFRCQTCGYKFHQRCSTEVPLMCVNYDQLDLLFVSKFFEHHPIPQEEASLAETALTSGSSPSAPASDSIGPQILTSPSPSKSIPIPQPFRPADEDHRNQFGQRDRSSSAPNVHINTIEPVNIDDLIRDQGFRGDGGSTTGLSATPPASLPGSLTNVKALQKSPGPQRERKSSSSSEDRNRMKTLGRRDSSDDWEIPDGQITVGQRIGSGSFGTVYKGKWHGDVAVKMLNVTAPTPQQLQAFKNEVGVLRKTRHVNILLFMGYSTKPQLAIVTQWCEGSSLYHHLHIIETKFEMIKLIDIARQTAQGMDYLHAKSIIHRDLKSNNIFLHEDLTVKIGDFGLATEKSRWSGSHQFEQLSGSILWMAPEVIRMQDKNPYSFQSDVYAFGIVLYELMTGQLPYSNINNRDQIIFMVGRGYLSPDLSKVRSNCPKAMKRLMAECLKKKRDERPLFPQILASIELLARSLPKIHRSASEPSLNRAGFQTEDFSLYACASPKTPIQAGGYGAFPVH
Chain of Mast/stem cell growth factor receptor Kit (Homo sapiens), P10721 [T670I] (P10721 whole entry T670I): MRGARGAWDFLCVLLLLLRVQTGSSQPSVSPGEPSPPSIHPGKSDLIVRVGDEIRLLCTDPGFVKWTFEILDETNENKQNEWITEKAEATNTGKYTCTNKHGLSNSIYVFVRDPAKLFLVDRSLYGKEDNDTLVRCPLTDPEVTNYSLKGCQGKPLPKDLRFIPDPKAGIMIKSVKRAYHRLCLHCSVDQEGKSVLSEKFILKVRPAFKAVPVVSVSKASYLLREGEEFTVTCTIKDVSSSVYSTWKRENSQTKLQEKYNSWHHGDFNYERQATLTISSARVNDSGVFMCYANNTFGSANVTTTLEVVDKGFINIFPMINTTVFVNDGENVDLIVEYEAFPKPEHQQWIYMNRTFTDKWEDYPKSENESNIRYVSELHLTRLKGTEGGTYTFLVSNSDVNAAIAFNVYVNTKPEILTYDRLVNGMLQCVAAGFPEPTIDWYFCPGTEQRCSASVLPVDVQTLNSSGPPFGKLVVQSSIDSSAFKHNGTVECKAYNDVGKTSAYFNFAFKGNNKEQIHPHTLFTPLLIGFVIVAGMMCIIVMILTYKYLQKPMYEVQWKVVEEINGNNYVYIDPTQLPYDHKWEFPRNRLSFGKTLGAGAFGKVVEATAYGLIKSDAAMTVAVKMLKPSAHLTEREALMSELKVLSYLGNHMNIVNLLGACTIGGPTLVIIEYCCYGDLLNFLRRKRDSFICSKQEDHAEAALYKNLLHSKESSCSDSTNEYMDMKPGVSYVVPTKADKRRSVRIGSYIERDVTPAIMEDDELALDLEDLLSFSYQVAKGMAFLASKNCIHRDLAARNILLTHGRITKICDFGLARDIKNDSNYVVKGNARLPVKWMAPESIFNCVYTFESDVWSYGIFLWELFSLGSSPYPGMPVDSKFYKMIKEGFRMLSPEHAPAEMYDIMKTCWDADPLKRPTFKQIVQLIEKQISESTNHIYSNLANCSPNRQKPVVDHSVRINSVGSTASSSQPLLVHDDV
Chain of Serine/threonine-protein kinase PAK 5 (Homo sapiens) (Q9P286 whole entry, looked up): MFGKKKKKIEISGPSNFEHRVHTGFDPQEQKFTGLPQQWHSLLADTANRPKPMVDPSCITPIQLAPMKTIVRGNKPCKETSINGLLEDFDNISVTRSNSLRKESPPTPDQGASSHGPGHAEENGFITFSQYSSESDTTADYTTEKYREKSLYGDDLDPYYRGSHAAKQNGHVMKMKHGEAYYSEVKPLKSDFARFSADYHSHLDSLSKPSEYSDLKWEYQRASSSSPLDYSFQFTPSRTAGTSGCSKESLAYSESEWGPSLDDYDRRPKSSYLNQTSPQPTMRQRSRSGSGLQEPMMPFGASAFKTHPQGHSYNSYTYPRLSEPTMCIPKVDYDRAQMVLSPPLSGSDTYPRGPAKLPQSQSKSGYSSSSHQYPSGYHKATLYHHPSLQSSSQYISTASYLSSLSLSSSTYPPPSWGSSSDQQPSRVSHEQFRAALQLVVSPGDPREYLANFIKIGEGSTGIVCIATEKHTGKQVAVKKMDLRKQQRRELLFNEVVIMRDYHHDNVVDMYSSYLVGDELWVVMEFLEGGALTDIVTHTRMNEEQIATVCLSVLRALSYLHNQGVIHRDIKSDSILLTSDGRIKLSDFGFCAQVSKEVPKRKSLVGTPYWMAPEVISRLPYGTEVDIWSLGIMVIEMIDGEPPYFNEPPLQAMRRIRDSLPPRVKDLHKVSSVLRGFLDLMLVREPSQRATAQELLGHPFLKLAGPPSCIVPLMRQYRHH
Chain of B1 bradykinin receptor (Homo sapiens) (P46663 whole entry): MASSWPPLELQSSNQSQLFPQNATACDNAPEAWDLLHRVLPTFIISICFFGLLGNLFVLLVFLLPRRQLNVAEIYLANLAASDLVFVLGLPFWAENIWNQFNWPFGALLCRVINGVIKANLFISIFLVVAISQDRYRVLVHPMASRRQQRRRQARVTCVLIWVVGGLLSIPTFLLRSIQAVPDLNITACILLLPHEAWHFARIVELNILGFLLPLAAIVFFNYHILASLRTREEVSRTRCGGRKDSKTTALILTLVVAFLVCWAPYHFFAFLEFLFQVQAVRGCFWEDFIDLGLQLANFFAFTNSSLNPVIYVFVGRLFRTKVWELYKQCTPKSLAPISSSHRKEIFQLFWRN
Chain of Calcium/calmodulin-dependent protein kinase kinase 1 (Homo sapiens) (Q8N5S9 whole entry, looked up): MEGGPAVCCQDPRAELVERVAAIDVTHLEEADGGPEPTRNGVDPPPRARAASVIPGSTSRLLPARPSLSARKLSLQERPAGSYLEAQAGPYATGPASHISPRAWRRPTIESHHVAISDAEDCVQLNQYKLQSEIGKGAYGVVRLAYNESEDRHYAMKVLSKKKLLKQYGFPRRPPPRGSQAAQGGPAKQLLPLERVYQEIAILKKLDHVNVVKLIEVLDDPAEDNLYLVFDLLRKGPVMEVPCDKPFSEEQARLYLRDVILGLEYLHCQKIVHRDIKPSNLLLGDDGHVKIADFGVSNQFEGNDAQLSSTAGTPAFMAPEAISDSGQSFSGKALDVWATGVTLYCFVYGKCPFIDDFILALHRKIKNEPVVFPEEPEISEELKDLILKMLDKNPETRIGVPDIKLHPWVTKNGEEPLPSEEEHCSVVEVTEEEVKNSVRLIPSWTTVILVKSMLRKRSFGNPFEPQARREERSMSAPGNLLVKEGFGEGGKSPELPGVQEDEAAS
Chain of Angiopoietin-1 receptor (Homo sapiens) (Q02763 whole entry): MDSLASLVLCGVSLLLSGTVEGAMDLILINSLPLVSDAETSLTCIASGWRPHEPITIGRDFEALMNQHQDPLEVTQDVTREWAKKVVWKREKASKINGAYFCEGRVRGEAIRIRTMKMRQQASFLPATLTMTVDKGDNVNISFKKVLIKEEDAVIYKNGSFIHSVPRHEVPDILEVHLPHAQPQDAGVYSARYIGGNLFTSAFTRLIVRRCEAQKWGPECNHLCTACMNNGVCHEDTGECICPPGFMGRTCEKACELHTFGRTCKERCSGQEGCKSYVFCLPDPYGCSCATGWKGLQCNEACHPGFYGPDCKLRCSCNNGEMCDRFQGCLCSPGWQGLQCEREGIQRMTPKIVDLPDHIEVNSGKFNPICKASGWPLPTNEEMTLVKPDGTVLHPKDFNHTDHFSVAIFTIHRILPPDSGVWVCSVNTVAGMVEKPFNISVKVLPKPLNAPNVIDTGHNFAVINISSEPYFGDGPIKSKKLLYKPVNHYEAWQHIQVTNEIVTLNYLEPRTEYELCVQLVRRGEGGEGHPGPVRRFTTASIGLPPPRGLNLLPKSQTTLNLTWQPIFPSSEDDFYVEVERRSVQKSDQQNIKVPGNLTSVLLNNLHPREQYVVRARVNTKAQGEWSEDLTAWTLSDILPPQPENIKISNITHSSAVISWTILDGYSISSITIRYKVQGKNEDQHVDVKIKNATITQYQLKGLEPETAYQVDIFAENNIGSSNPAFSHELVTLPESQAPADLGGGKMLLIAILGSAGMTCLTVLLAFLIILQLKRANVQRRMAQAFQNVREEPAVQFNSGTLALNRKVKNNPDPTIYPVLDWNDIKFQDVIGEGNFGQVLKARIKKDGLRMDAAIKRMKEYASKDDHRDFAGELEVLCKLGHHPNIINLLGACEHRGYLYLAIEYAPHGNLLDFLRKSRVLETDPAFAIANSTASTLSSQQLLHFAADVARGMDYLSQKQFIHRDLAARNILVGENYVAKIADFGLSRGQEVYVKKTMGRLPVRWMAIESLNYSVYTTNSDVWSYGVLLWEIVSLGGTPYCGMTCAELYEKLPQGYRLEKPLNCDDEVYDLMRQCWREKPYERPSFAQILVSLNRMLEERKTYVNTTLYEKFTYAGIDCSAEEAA
Chain of Tyrosine-protein kinase Fgr (Homo sapiens) (P09769 2-529 limits assumed): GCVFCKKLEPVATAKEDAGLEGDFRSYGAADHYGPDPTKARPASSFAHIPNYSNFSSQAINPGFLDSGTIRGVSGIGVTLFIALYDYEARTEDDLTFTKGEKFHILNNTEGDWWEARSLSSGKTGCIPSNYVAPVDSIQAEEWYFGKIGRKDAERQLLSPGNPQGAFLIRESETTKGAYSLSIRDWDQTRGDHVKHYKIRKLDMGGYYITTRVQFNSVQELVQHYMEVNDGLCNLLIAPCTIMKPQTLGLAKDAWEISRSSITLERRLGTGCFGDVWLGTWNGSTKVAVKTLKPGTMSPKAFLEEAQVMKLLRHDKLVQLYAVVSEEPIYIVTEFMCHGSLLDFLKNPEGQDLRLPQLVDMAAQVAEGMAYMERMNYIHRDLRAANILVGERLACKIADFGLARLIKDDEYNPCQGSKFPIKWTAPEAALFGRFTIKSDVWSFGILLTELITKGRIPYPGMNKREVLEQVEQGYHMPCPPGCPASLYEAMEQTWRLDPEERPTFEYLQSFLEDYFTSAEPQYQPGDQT

C[C@@H]1CN(c2cc(-c3n[nH]c4ccc(OC5(C)CC5)cc34)ncn2)C[C@H](C)O1 [MLi-2]
inactive: [1] 10.4% | [2] 5.96% | [3] 2.36% | [4] -2.24% | [5] 7.53% | [6] 26% | [7] 12.6% | [8] -6% | [9] -0.692% | [10] 8% | [11] 3.08% | [12] 4.49% | [13] 6% | [14] 7.26% | [15] 4.43%
